Laboratory results taken from ChEMBL document CHEMBL3525920, “CYP4F enzymes are responsible for the elimination of fingolimod (FTY720), a novel treatment of relapsing multiple sclerosis” (Drug Metab Dispos, 2011).

Experiments:
Assay type in all cases: ADME
[1] = target: Cytochrome P450 2B6 (Homo sapiens, UniProt P20813); assay: Activity at CYP2B6 in human liver microsomes isolated from donors assessed as metabolite formation after 24 mins by HPLC-RA analysis; details: 0.4 h
[2] = target: Cytochrome P450 1A1 (Homo sapiens, UniProt P04798); assay: Activity at human recombinant CYP1A1 expressed in baculovirus-infected BTI-TN-5B1-4 insect cell microsomes assessed as metabolite formation at 5 to 100 uM after 30 mins by HPLC-RA analysis; details: bti-tn-5b1-4, 0.5 h
Cytochrome P450 1A1, sequence (P04798 whole entry): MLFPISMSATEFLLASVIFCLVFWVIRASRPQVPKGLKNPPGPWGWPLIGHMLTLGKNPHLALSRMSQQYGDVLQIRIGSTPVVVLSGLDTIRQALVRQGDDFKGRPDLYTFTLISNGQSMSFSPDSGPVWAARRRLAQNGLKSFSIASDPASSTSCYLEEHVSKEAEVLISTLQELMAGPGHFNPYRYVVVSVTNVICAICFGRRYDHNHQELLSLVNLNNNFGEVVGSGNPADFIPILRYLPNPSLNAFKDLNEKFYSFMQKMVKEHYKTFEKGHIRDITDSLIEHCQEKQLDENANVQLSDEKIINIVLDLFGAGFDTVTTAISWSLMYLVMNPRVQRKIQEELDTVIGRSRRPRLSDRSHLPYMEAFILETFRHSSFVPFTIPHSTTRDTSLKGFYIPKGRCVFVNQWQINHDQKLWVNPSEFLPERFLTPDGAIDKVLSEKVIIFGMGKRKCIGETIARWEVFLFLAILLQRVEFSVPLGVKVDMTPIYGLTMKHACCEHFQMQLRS

[3] = target: Cytochrome P450 2C19 (Homo sapiens, UniProt P33261); assay: Activity at human recombinant CYP2C19 expressed in baculovirus-infected BTI-TN-5B1-4 insect cell microsomes assessed as metabolite formation at 5 to 100 uM after 30 mins by HPLC-RA analysis; details: bti-tn-5b1-4, 0.5 h
Cytochrome P450 2C19, sequence (P33261 whole entry): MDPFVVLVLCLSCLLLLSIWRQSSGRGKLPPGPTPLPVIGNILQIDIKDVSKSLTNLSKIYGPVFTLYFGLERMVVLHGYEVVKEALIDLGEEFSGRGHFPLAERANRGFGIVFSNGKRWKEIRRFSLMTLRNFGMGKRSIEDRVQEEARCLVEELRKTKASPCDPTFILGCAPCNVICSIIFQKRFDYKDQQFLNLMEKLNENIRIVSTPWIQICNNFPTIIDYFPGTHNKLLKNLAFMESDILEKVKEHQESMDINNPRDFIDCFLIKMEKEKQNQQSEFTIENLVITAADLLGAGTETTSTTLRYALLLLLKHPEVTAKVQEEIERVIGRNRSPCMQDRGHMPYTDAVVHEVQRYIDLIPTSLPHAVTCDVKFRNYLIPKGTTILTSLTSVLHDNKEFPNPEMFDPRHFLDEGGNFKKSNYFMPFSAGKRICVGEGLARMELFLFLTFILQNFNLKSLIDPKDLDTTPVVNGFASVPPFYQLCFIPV

[4] = test system: Liver microsome; assay: Drug metabolism in human liver microsomes assessed as metabolite formation at 50 uM treated 15 mins after antibody addition measured after 20 mins by HPLC-RA analysis in presence of CYP2E1-specific monoclonal antibody

Cytochrome P450 2B6, sequence (P20813 whole entry): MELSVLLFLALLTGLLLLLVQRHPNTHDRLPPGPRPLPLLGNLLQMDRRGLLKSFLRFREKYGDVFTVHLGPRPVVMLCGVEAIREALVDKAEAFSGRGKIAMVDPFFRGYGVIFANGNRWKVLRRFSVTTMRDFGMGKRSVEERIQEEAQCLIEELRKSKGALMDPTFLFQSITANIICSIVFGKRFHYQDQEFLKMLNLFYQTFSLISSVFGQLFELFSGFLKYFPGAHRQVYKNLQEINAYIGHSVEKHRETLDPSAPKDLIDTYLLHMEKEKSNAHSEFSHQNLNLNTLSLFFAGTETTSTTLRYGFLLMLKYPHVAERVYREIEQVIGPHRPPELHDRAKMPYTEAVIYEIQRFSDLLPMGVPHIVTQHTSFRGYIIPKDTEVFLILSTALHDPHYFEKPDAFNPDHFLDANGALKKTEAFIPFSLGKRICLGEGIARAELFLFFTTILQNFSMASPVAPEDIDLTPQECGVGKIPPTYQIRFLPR

Drug metabolism [1]: metabolite_not_detected
Drug metabolism [2]: metabolite_not_detected
Drug metabolism [3]: metabolite_not_detected
Drug metabolism [4]: metabolite_detected
Compound: CCCCCCCCc1ccc(CC[14C](N)(CO)CO)cc1.Cl
